Measured values: PubChem BioAssay (NCI)
Several values for one entry are separate records, joined by “and”; a condition that tells them apart may be missing. Equal values may be shown once.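 Tested at 5 concentrations; 48 h exposure; 96-well plates; endpoints linearly interpolated, else capped at highest concentration. At the GI50, growth is halved. TGI marks complete inhibition of growth.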

Experiments:
Test in all cases: NCI-60 cell line screen, 48 h
COLO 205 colon = test system: COLO 205 colon
HOP-62 NSCLC = test system: HOP-62 NSCLC
KM12 colon = test system: KM12 colon
MOLT-4 leukemia = test system: MOLT-4 leukemia
NCI-H23 lung = test system: NCI-H23 lung
OVCAR-4 ovarian = test system: OVCAR-4 ovarian
SF-539 CNS = test system: SF-539 CNS
SK-MEL-5 melanoma = test system: SK-MEL-5 melanoma
SK-OV-3 ovarian = test system: SK-OV-3 ovarian
TK-10 renal = test system: TK-10 renal

SMILES | GI50 (COLO 205 colon) | TGI (COLO 205 colon) | GI50 (HOP-62 NSCLC) | TGI (HOP-62 NSCLC) | GI50 (KM12 colon) | TGI (KM12 colon) | GI50 (MOLT-4 leukemia) | TGI (MOLT-4 leukemia) [µM] | GI50 (NCI-H23 lung) | TGI (NCI-H23 lung) [µM] | GI50 (OVCAR-4 ovarian) [µM] | TGI (OVCAR-4 ovarian) | GI50 (SF-539 CNS) | TGI (SF-539 CNS) [µM] | GI50 (SK-MEL-5 melanoma) | TGI (SK-MEL-5 melanoma) [µM] | GI50 (SK-OV-3 ovarian) [µM] | TGI (SK-OV-3 ovarian) [µM] | GI50 (TK-10 renal) [µM] | TGI (TK-10 renal) [µM]
O=[N+]([O-])c1cccc(-c2nc(-c3ccc(Cl)cc3Cl)cn2-c2ccccc2)c1 | 0.485 µM | 0.987 µM | 1.39 µM | 7.56 µM | 0.573 µM | 1.22 µM | 3.21 µM | > 33.3 | 5.15 µM | > 27.1 | 0.58 | 1.12 µM | 1.02 µM | 4.33 | 6.78 µM | > 33.3 | 3.06 | 29.9 | 0.612 | 1.13
CC1=CC(C)(c2c[nH]c3ccccc23)CC(C)(C)c2c1[nH]c1ccccc21 (centres undefined) | – | – | – | 79.7 µM | – | > 100 µM | – | 27.6 | – | 28.5 | – | 27.7 µM | – | > 100 | – | – | – | 61.8 | – | > 100
O=C(O)C1CC=CCC1C(=O)Nc1cccc(O)c1 (centres undefined) | – | > 100 µM | – | > 100 µM | – | > 100 µM | – | > 100 | – | > 100 | – | > 100 µM | – | > 100 | – | > 100 | – | > 100 | – | > 100
O=C(O)c1cc2ccccc2c2c3c(ccc12)OCO3 | 171 µM | 368 µM | 176 µM | 697 µM | 219 µM | 702 µM | 192 µM | 513 | 188 µM | 584 | 170 | 808 µM | 132 µM | 337 | 133 µM | 281 | 236 | 739 | 231 | 616
CC(C)c1ccc(C2NC(=S)NC3=C2c2ccccc2C3=O)cc1 (centres undefined) | – | > 59.2 µM | – | > 57.1 µM | – | > 58.7 µM | – | > 65 | – | > 59.2 | – | 53.8 µM | – | 37.8 | – | 52.8 | – | > 61.7 | – | > 57.1
CCCCC(C)/C=C/C(=O)C1=C(O)/C(=C/C(=O)O)OC1=O (centres undefined) | – | > 100 µM | – | > 100 µM | – | > 100 µM | – | > 100 | – | > 100 | – | > 100 µM | – | > 100 | – | > 100 | – | > 100 | – | > 100
O=C1/C(=C/c2ccc3c(c2)OCCO3)CCC/C1=C\c1ccc2c(c1)OCCO2 | – | 46.8 µM | – | 92.1 µM | – | 62.1 µM | – | > 100 | – | – | – | 61 µM | – | 38.6 | – | 80 | – | > 100 | – | > 100
O=S(=O)(NCCNc1nccc(-c2c(-c3ccc(F)c(O)c3)nc3sccn23)n1)c1ccc(Cl)cc1 | – | – | 6.17 µM | 21.5 µM | – | – | – | – | 3.56 µM | 12.2 | 2.79 | > 50 µM | 5.09 µM | 11.9 | – | – | 2.8 | 15.9 | 5.16 | 34.6
O=c1c2ccccc2[nH]c2c(O)ccc(O)c12 | – | – | – | > 100 µM | – | > 100 µM | – | 22.8 | – | 71.5 | – | 18.5 µM | – | 75.3 | – | – | – | 65.9 | – | 52.6
C[C@H]1C/C=C/[C@H]2[C@@H]3O[C@]3(C)[C@@H](C)[C@H]3[C@H](Cc4ccccc4)NC(=O)[C@]32OC(=O)O/C=C/[C@@](C)(O)C1=O | 0.0194 µM and 0.0125 µM and 0.025 µM | 49.2 µM and 98.6 µM and 70.8 µM | 0.0125 µM and 0.025 µM | 0.185 µM and 0.164 µM and 0.067 µM | 11.7 µM and 29.1 µM | 125 µM and > 250 µM | 0.289 µM and 0.052 µM | – | 0.17 µM and 0.13 µM | – | 0.396 | > 79.2 µM and 46.3 µM and > 250 µM | 0.0125 µM and 0.025 µM | – | 0.0539 µM and 0.0351 µM | – | 0.025 | – | – | –
Nc1nonc1-c1nc2ccccc2n1Cc1ccc(F)cc1 | 5.02 µM | > 100 µM | 14.6 µM | > 100 µM | 3.71 µM | > 100 µM | 5.5 µM | > 100 | 87 µM | > 100 | > 100 | > 100 µM | 8.14 µM | > 100 | – | – | 16.8 | > 100 | 6.78 | > 100
COc1cc(Cl)cc(-c2nn(-c3cccc(NC(=O)Nc4cccc(C(F)(F)F)c4)c3)cc2-c2ccncc2)c1 | 1.53 µM | 3.17 µM | 2.81 µM | 13.1 µM | 0.611 µM | 4.79 µM | 1.14 µM | 4.35 | 1.76 µM | 6.69 | 2.54 | 38.8 µM | 1.9 µM | 4.82 | 1.48 µM | 2.84 | 3.61 | 58.4 | – | –
CC(=O)Oc1ccc2c(c1)[C@@]1(C)CCCC(C)(C)[C@@H]1CC2 | 21.9 µM | 53.6 µM | 15.9 µM | 30.2 µM | 19.2 µM | 45 µM | 30.9 µM | > 100 | 19.8 µM | 37.6 | – | – | – | – | 30.9 µM | 73.6 | – | – | – | –
Cc1ccccc1NC(=O)/C=N/O | – | > 100 µM | – | > 100 µM | – | > 100 µM | – | > 100 | – | > 100 | – | > 100 µM | – | – | – | > 100 | – | > 100 | – | > 100
CC(C)(C)OC(=O)NCCCCn1c2c(c3ccccc3c1=O)C(=O)c1ccccc1-2 | 44 µM | > 100 µM | 28.7 µM | > 100 µM | 28.9 µM | > 100 µM | 4.32 µM | > 100 | 20.8 µM | 43.4 | 47.8 | > 100 µM | 25.9 µM | 62.8 | – | – | 50.2 | > 100 | 20.7 | 47.7
COC(=O)c1cccc2c3ccccc3c3ccccc3c12 | – | 31.7 µM | – | > 100 µM | – | > 100 µM | – | 61.7 | – | 54.7 | – | > 100 µM | – | – | – | > 100 | – | 75.7 | – | > 100
